Results reported in publication PMC5947712, “High‐Throughput Kinetic Analysis for Target‐Directed Covalent Ligand Discovery” (Angewandte Chemie (International Ed. in English), 2018).

Biological target: T1, Cdk2:cyclin A2 (Homo sapiens, UniProt P24941)
T1 construct: GST (N, cleaved yes); made in house; host or cells: E. coli Tuner(DE3)
Test: In vitro kinase activity after 24 h incubation of active Cdk2:cyclin A2 with acrylamides
Assay type: biochemical
Conditions: 0.5 mM, n=3, read-out: % inhibition ± SEM Cdk2
Procedure: Figure 6 a) Sequence alignment of Cdk family. Cys177 is highlighted in yellow. b) Published selectivity profiles of selected Cdk2 inhibitors.29 c) Active Cdk1/Cdk2:cyclin A2 was incubated with acrylamides 1 and 2 (0.5 mM) for 24 hours and then their in vitro kinase activity was measured (n=3). […]
Tables! 2R6.! Molecular! replacement! was! conducted! on! all! data! sets! using!Phaser[14]/MOLREP[15]!against! apoRCdk2! (PDB:!
4EK3)!and!the! model! was! iteratively! refined! using! Phenix.Refine[16]!with! manual! modelling! and! adjustments! carried! out! in!
COOT[17].! Descriptions! of! the! ligands! and! links! were! generated! with! JLigand[18]!and! refined! with! Refmac[19].! Electron! density! […]
Cdk2! (1! mg)! was! sequentially! incubated! with! aliquots! of! CAK1! (3!×!0.05! mg)! at! r.t.! for! […]
Phosphorylation! of! […] Cdk2! during! gel! electrophoresis! and! the! reaction! was! monitored! by! […]
initiated!by!addition!of!0.5!mM!ATP!and!0.24!mM!substrate!peptide!([…])!and!the!absorbance!at!340!nm!was!moniR […]
plate! reader! […]
was!measured!from!the!gradient!during!the!linear!phase!of!product!accumulation.!! […]
ments,! the! wavelength! was! adjusted! to! 230! nm! and! elipticity! was! measured! at! […]
repeats!of!10!s!integrations!per!temperature.!The!meltRtemperature!(Tm)!was!determined!using!Prism!6.0!by!fitting!a!sigmoidal! […]
The! cell! lysates! were!diluted! to! […] RIPA! lysis! buffer,! as! quantified! by! the! […]

inhibition at 500 µM [%]	SMILES
83 ± 3	C=CC(=O)N1CCN(C(=O)OC(C)(C)C)c2ccccc21 [Acrylamide 1]
5 ± 6	C=CC(=O)N1CCN(C(=O)OC)c2ccccc21 [Acrylamide 2]
